In series [1] the test system is female mosquitoes. Nature of the series: Efficacy by ingestion: feeder test in 6-liter cage, death rate of female mosquitoes. The class given is in vivo. The following applies: for Death Rate / Death Rate within 24 hrs after treatment removed / Death Rate within 2 days after treatment removed / Death Rate within 3 days after treatment removed / Death Rate within 4 days after treatment removed: 10% sugar in CPDA, 24 hrs; for timing of death after ingestion (“delayed” death): after treatment was removed. From the text:
Female mosquitoes were used in the experiment because only female mosquitoes bite humans and animals and transmit infectious diseases.
(2R)-3-fluoropropane-1,2-diol (rFOH) was used as the active agent at various concentrations. A sugar feeder containing 10% sucrose, which is a regular mosquito feeder in a laboratory setting, was used as a regular food source in free choice studies. A free choice study allows the pests to select which feeder to feed on when given two or more choices.
In a two-choice test, a 6-liter cage was supplied with two feeders, one contained 5% rFOH and 10% sucrose in CPDA and the other one contained 10% sucrose without any rFOH or CPDA. 100 female mosquitoes were placed in the cage having the two feeders such that the mosquitoes chose freely which feeder to feed on. After 24 hours of feeding in the cage, over 80% of mosquitoes were dead. […] When the concentration of rFOH was reduced to 1% or 0.15%, its effectiveness remained the same. Over 80% of mosquitoes were dead due to 24 hours of feeding with rFOH.
Subsequent to 24 hours of feeding, rFOH feeder was removed from the cage and a regular sugar feeder (10% sucrose) was provided. In the next day, 5-20% of residual death was observed, indicating a delayed death after rFOH ingestion.
In a further study, mosquitoes were fasted for 24 hours before feeding to ensure that all mosquitoes have the capacity for food intake. […] Thus, fasting is not a cause of mosquito death during a series of experiments.
The experiments determined that 0.1% rFOH was sufficient to achieve 50% death (LD50) under various conditions. In one study, 100 mosquitoes were caged in a 6-liter space and fasted for 24 hours. Subsequently, the mosquitoes were fed on two feeders giving their free choices for 0.1% rFOH containing 10% sucrose in CPDA or 10% sucrose without rFOH for 24 hours, resulting in 43% death. In a parallel study in which the cage was supplied with a single feeder, the 0.1% rFOH feeder containing 10% sucrose in CPDA, which caused 44% of death after 24 hours of feeding.
Similar experiments as disclosed above were performed with various rFOH concentrations under various conditions. The rFOH composition contained 10% sugar in CPDA solution unless specified otherwise.
Similar experiments as disclosed above were performed on female mosquitoes to determine LD50. The rFOH composition contained 10% sugar in CPDA solution unless specified otherwise.
(§1) Similar experiments as disclosed above were performed on female mosquitoes using different active agents at various concentrations. The active agent composition contained 10% sugar in CPDA solution unless specified otherwise.

The subject of another series is Escherishia coli DH5α. Put plainly: MIC test, broth microdilution (CLSI M07-A9). The class given is cell-based. The procedure: (§2) The effects of pesticides disclosed herein on various bacteria were tested by determining the minimal inhibitory concentration (MIC) of the pesticides. MIC of an antimicrobial agent is the lowest concentration of the antimicrobial agent that inhibits a given bacterial isolate from multiplying and producing visible growth in the test system. The MIC of rFOH and BrOH was determined in the laboratory by incubating a known quantity of bacteria with a series of dilutions of the active agents and comparing their effects with those of known antimicrobial agents. Table 6 lists the representative bacterial strains and the conditions in MIC tests. Antimicrobial tests of the active agents were conducted according to “Methods for Dilution Antimicrobial Susceptibility Tests for Bacteria That Grow Aerobically” by Clinical and Laboratory Standards Institute (CLSI) (CLSI document M07-A9, 2012). In the study, methicillin/oxacillin resistant Staphylococcus aureus (MRSA) strain (ATCC 43300) was routinely under screening with 4 ug/ml oxacillin. Escherishia coli DH5α was a nonpathogenic laboratory strain. […] When the DH5α/plasmid (DH5P) colony was used, the colony was maintained in the presence of 100 ug/ml ampicillin.
(§3) MIC tests were conducted in 96 well microtiter plates with a total volume of 150 ul broth in each well. The directly colony suspension method (CLSI document M07-A9, 2012) was applied to obtain MIC for antimicrobial tests of the active agents. After colonies were freshly incubated overnight, colonies were suspended in sterile water to adjust the inoculum to a turbidity equivalent to a 0.5 McFarland standard (corresponding to approximately 1.5×10^8 CFU/ml). Within 10 minutes, the inoculum was adjusted by dilution in broth to reach a final concentration of 5×10^5 CFU/ml. A series of various concentrations of the active agents were applied to determine the MIC. In the same microtiter plate, an internal standard formulated by a concentration series of standard antibiotic agent was incubated in parallels to allow for back-to-back comparison.

The test system of series [2] is Escherishia coli DH5α transformed with a pcDNA3 plasmid (DH5P). Nature of the series: MIC test, broth microdilution (CLSI M07-A9). The class given is cell-based. The procedure: as §2, §3
Series [3] has as its system Methicillin/oxacillin resistant Staphylococcus aureus (MRSA) strain (ATCC 43300). Nature of the series: MIC test, broth microdilution (CLSI M07-A9). The class given is cell-based. The method, then: as §2, §3
For orientation: In broth dilution the organism is exposed to a series of concentrations in liquid medium.

The test system of series [4] is female mosquitoes. Nature of the series: Membrane feeding test, death rate of female mosquitoes. The class given is in vivo. The following applies: active agent at 1%; 18 hrs fasting; membrane feeding for 1 hour and 45 minutes before sugar feeder provided. The procedure:
as §1
This is because membrane feeding provides only a small space accessible to a limited number of mosquitoes for feeding.

The next series in a line: Stability of FOH. Conditions: normal temperature and pressure. The class given is physicochemical. The method, then:
In some embodiments, 3-fluoropropane-1,2-diol (FOH) (R^1═R^2=R^3═R^5═H, n=2, m=0 in formula I) is exemplified as an active agent of the compositions disclosed herein. FOH has two enantiomeric isomers (2r)-3-fluoropropane-1,2-diol (rFOH) and (2s)-3-fluoropropane-1,2-diol (sFOH). FOH is a nonvolatile chemical having a boiling point of 205.4° C. at 760 mm Hg, a flash point of 87.2° C., and a density of 1.192 g/cm^3. FOH is stable under normal temperature and pressure. The chemical synthesis of FOH is known in the art (Dummel et al., J. Med. Chem. 12(2): 347 (1969)). The chemical structure of FOH, representing both rFOH and sFOH, is shown below: […]

[5] abbreviates: active agent at 0.5%, 24 hrs fasting, sugar feeder not provided.
The mark [6] stands for this setting: active agent at 1.5%, 24 hrs fasting, sugar feeder not provided.
Where [7] appears, read: active agent at 1%, 24 hrs fasting, sugar feeder not provided.
Where [8] appears, read: Tryptic soy broth, 37° C. for 24 hrs, listed as BrOH.
Setting [9] is: active agent at 0.5%, not fasted, sugar feeder provided for free choice.
[10] abbreviates: internal standard in the same microtiter plate.

The record followed here is US11553713B2, “Polyalcohol, carbohydrate, nucleobase and nucleotide compositions and uses thereof” (Chunbo Zhang, priority 2015, dated 2023).

For the compound `OCC1(CO)CCC1` [1,1-Bis(hydroxymethyl)cyclobutane], the “Death Rate” value in the series on female mosquitoes [1] (setting [5]) is recorded as 50%.

On to `OC1CCCCC1O` (stereo not drawn) [1,2-cyclohexanediol], for which the “Death Rate” value in the series on female mosquitoes [1] (setting [5]) came out at 22%. As for `CC(C)(CO)CO` [2,2-Dimethyl-1,3-propanediol], the “Death Rate” value in the series on female mosquitoes [1] (active agent at 0.5%, 24 hrs fasting, sugar feeder provided for free choice) amounted to 10%. As to `CC(C)(O)C(C)(C)O` [2,3-Dimethylbutane-2,3-diol], the “Death Rate” value with female mosquitoes [1] (setting [6]) came out at 53%.

Regarding `NC(CO)CO` [2-Amino-1,3-propanediol], the “Death Rate” value with female mosquitoes [1] (setting [5]) worked out at 16%. Take `Nc1nc(F)nc2nc[nH]c12` [2-Fluoroadenine]: the “Death Rate” value in the series on female mosquitoes [1] (active agent at 0.2%, 24 hrs fasting, sugar feeder provided for free choice) is 30%. On to `Nc1nc(F)nc2c1ncn2[C@@H]1O[C@H](CO)[C@@H](O)[C@H]1O` [2-Fluoroadenosine], for which, in the series on female mosquitoes [1] (setting [7]), the “Death Rate within 24 hrs after treatment removed” value is reported as 22% within; the “Death Rate within 2 days after treatment removed” value was “removed, 47%”; the “Death Rate within 3 days after treatment removed” value was “removed, 64%”; the “Death Rate within 4 days after treatment removed” value is 75-80% within. The “Death Rate within 4 days after treatment removed” value in the series with female mosquitoes [1] (active agent at 1%, 24 hrs fasting, sugar feeder not provided, listed as 2-fluoroadenosine) was 75-80%. The “timing of death after ingestion (“delayed” death)” value (shortened to “timing of death after ingestion”) with female mosquitoes [1] is given as “delayed”. On to `CC(CO)CO` [2-Methyl-1,3-propanediol], for which the “Death Rate” value with female mosquitoes [1] (setting [5]) worked out at 12%. With `OCC(CO)c1ccccc1` [2-Penyl-1,3-propanediol], the “Death Rate” value in the series with female mosquitoes [1] (setting [6]) is recorded as 61%.

Regarding `O=c1[nH]c(=O)n([C@H]2C[C@H](O)[C@@H](CO)O2)cc1F` [2′-Deoxy-5-fluorouridine], the “Death Rate” value in the series with female mosquitoes [1] (active agent at 2%, 24 hrs fasting, sugar feeder not provided) is recorded as 24%. In the case of `OCC(O)CBr` (stereo not drawn) [3-Bromopropane-1,2-diol], the MIC with Escherishia coli DH5α (setting [8]) is given as 0.025%; in series [2] (setting [8]), 0.2%; in series [3] (Mueller Hinton broth with 2% NaCl and 50 ug/ml CaCl2, 35° C. for 24 hrs, listed as BrOH) it was 2.5%. In addition, the “Death Rate” value in the series with female mosquitoes [1] (active agent at 0.15%, 24 hrs fasting, sugar feeder provided for free choice, death found for a week after treatment was removed) was 30-52%; in the series with female mosquitoes [1] (active agent at 0.2%, 24 hrs fasting, sugar feeder not provided, death found for a week after treatment was removed), >85% death. For the same compound, the “timing of death after ingestion” value with female mosquitoes [1] is “Delayed”.

As to `OCC(O)CCl` (stereo not drawn) [3-Chloro-1,2-propanediol], the “Death Rate” value with female mosquitoes [1] (active agent at 0.15%, 24 hrs fasting, sugar feeder not provided) is given as >85%. In the case of `OC[C@H]1O[C@@H](O)[C@H](O)[C@@H](O)[C@@H]1F` [4-Deoxy-4-fluoro-β-D-glucopyranose], in the series on female mosquitoes [4], the “Death Rate in 2 hours” value turned out to be 10% in 2; the “Death Rate in 24 hours” value is listed as “hours, 17%”; the “Death Rate in the first hour” value is given as 2% in the. Consider `C[C@@H](Cl)C(=O)O` [(R)-(+)-2-Chloropropionic acid], for which the “Death Rate” value with female mosquitoes [1] (setting [5]) is recorded as 10%. In the case of `OCC(O)CF` (stereo not drawn) [FOH, 3-fluoropropane-1,2-diol], the stability result in “Stability of FOH” is reported as “stable”. Consider `Nc1ccn([C@@H]2O[C@H](CO)[C@@H](O)C2(F)F)c(=O)n1` [Gemcitabine, reference compound], for which, in the series on female mosquitoes [1] (setting [9]), the “Death Rate within 24 hrs after treatment removed” value turned out to be 3% within; the “Death Rate within 2 days after treatment removed” value was “removed, 36%”; the “Death Rate within 3 days after treatment removed” value was 66%.

Take `CC1(C)S[C@@H]2[C@H](NC(=O)[C@H](N)c3ccccc3)C(=O)N2[C@H]1C(=O)O` [ampicillin, reference compound]: the “Comparable Effectiveness (standard antibiotic concentration as effective as 0.4% rFOH)” value in the series with Escherishia coli DH5α (setting [10]) stood at 19 µg/mL; in series [2] (setting [10]), 240 µg/mL. In the case of `CO[C@@]1(NC(=O)Cc2cccs2)C(=O)N2C(C(=O)O)=C(COC(N)=O)CS[C@@H]21` [cefoxitin, reference compound], the “Comparable Effectiveness (standard antibiotic concentration as effective as 0.4% rFOH)” value in series [3] (setting [10]) was 48 µg/mL. In the case of `OC[C@H](O)CF` [sFOH, (2s)-3-fluoropropane-1,2-diol], the “Death Rate” value in the series on female mosquitoes [1] (active agent at 0.3%, 24 hrs fasting, sugar feeder not provided, death found for a week after treatment was removed) is 42-68%; in the series on female mosquitoes [1] (active agent at 0.5%, 24 hrs fasting, sugar feeder not provided, death found for a week after treatment was removed) it was >85% death. In addition, the “timing of death after ingestion” value in the series on female mosquitoes [1] is “Delayed”.
